Laboratory results as given in patent publication US11051515B2, “3-acyl-benzamides and their use as herbicides” (Bayer Aktiengesellschaft, priority 2017, dated 2021).

Columns and labels:
ALOMY = test: Pre-emergence action against ALOMY; type: in vivo, Alopecurus myosuroides; conditions: dosage 320 g/ha, pre-emergence, scored visually after 3 weeks vs untreated controls, 100% = plants have died, 0% = like control plants
Summary of the method: (§1)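 Seeds sown in sandy loam in wood-fiber pots and covered with soil. Greenhouse growth; visual damage scored after 3 weeks versus untreated controls (100% = dead, 0% = like control).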

SETVI [1] = test: Pre-emergence action against SETVI; type: in vivo, Setaria viridis; conditions: pre-emergence, dosage 320 g/ha, scored visually after 3 weeks vs untreated controls
Summary of the method: as §1

PHBPU [2] = test: Pre-emergence action against PHBPU; type: in vivo, Pharbitis purpurea; conditions: Dosage 320 g/ha, pre-emergence
Description: (§2) Seeds of monocotyledonous and dicotyledonous weed plants and crop plants are laid out in sandy loam soil in wood-fiber pots and covered with soil. The compounds of the invention, formulated in the form of wettable powders (WP) or as emulsion concentrates (EC), are then applied to the surface of the covering soil in the form of an aqueous suspension or emulsion at a water application rate equating to […], with addition of 0.2% wetting agent. After the treatment, the pots are placed in a greenhouse and kept under good growth conditions for the trial plants. The damage to the test plants is scored visually after a test period of 3 weeks by comparison with untreated controls (herbicidal activity in percent (%): 100% activity=the plants have died, 0% activity=like control plants).

CYPES [3] = test: Post-emergence action against CYPES; type: in vivo, Cyperus esculentus; conditions: post-emergence, dosage 80 g/ha, visual assessment about 3 weeks after treatment vs untreated controls; for pest or weed control at 80 g/ha: Cyperus esculentus, 504 h, read-out: Post-emergence action against CYPES (herbicidal action in percent)
Experimental: (§3) Seeds of monocotyledonous and dicotyledonous weed and crop plants are laid out in sandy loam soil in wood-fiber pots, covered with soil and cultivated in a greenhouse under good growth conditions. 2 to 3 weeks after sowing, the test plants are treated at the one-leaf stage. The compounds of the invention, formulated in the form of wettable powders (WP) or as emulsion concentrates (EC), are then sprayed onto the green parts of the plants in the form of an aqueous suspension or emulsion at a water application rate equating to […], with addition of 0.2% wetting agent. After the test plants have been left to stand in the greenhouse under optimal growth conditions for about 3 weeks, the action of the preparations is assessed visually in comparison to untreated controls (herbicidal action in percent (%): 100% activity=the plants have died, 0% activity=like control plants). […] At the same time, inventive compounds leave Gramineae crops such as barley, wheat, rye, millet/Sorghum, corn or rice virtually undamaged when applied post-emergence, even at high active ingredient dosages. In addition, some substances are also harmless to dicotyledonous crops such as soya, cotton, oilseed rape, sugar beet or potatoes. Some of the compounds according to the invention have high selectivity and are therefore suitable for controlling unwanted vegetation in agricultural crops by the post-emergence method. The data of Tables B18 to B34 below illustrate, in an exemplary manner, the […] herbicidal action of the compounds according to the invention, the herbicidal activity being stated in percent.

ABUTH [4] = test: Pre-emergence action against ABUTH; type: in vivo, Abutilon theophrasti; conditions: pre-emergence, dosage 320 g/ha, scored visually after 3 weeks vs untreated controls; for pest or weed control at 320 g/ha: Abutilon theophrasti, 504 h, read-out: Pre-emergence action against ABUTH (herbicidal activity)
Summary of the method: as §1

MATIN [5] = test: Post-emergence action against MATIN; type: in vivo, Matricaria inodora; conditions: post-emergence, dosage 80 g/ha, visual assessment about 3 weeks after treatment vs untreated controls; for pest or weed control at 80 g/ha: Tripleurospermum inodorum, 504 h, read-out: Post-emergence action against MATIN (herbicidal action in percent)
Summary of the method: (§4)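 Post-emergence foliar spray on greenhouse plants at the one-leaf stage, using wettable-powder or emulsion-concentrate formulations in water (600 to […], plus 0.2% wetting agent). Damage scored by eye roughly 3 weeks later against untreated plants: 0% = like control, 100% = dead.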

STEME [6] = test: Pre-emergence action against STEME; type: in vivo, Stellaria media; conditions: Dosage 320 g/ha, pre-emergence; for pest or weed control at 320 g/ha: Stellaria media, 504 h
Summary of the method: as §1

ECHCG [7] = test: Post-emergence action against ECHCG; type: in vivo, Echinochloa crus-galli; conditions: post-emergence, dosage 80 g/ha, visual assessment about 3 weeks after treatment vs untreated controls; for pest or weed control at 80 g/ha: Echinochloa crus-galli, 504 h, read-out: Post-emergence action against ECHCG (herbicidal action in percent)
Summary of the method: as §4

VIOTR [8] = test: Post-emergence action against VIOTR; type: in vivo, Viola tricolor; conditions: post-emergence, dosage 80 g/ha; for pest or weed control at 80 g/ha: Viola tricolor, 504 h
Summary of the method: as §4

SETVI [9] = test: Post-emergence action against SETVI; type: in vivo, Setaria viridis; conditions: post-emergence, dosage 80 g/ha, visual assessment about 3 weeks after treatment vs untreated controls; for pest or weed control at 80 g/ha: Setaria viridis, 504 h, read-out: Post-emergence action against SETVI (herbicidal action in percent)
Experimental: as §3

AMARE [10] = test: Pre-emergence action against AMARE; type: in vivo, Amaranthus retroflexus; conditions: pre-emergence, dosage 320 g/ha, scored visually after 3 weeks vs untreated controls; for pest or weed control at 320 g/ha: Amaranthus retroflexus, 504 h, read-out: Pre-emergence action against AMARE (herbicidal activity)
Summary of the method: as §1

CYPES [11] = test: Pre-emergence action against CYPES; type: in vivo, Cyperus esculentus; conditions: pre-emergence, dosage 320 g/ha, scored visually after 3 weeks vs untreated controls
Description: as §2

VIOTR [12] = test: Pre-emergence action against VIOTR; type: in vivo, Viola tricolor; conditions: Dosage 320 g/ha, pre-emergence
Summary of the method: as §1

AMARE [13] = test: Post-emergence action against AMARE; type: in vivo, Amaranthus retroflexus; conditions: post-emergence, dosage 80 g/ha, visual assessment about 3 weeks after treatment vs untreated controls; for pest or weed control at 80 g/ha: Amaranthus retroflexus, 504 h, read-out: Post-emergence action against AMARE (herbicidal action in percent)
Summary of the method: as §4

VERPE [14] = test: Post-emergence action against VERPE; type: in vivo, Veronica persica; conditions: dosage 80 g/ha; for pest or weed control at 80 g/ha: Veronica persica, 504 h
Summary of the method: as §4

ECHCG [15] = test: Pre-emergence action against ECHCG; type: in vivo, Echinochloa crus-galli; conditions: pre-emergence, dosage 320 g/ha, scored visually after 3 weeks vs untreated controls; for pest or weed control at 320 g/ha: Echinochloa crus-galli, 504 h, read-out: Pre-emergence action against ECHCG (herbicidal activity)
Summary of the method: as §1

STEME [16] = test: Post-emergence action against STEME; type: in vivo, Stellaria media; conditions: post-emergence, dosage 80 g/ha; for pest or weed control at 80 g/ha: Stellaria media, 504 h
Summary of the method: as §4

VERPE [17] = test: Pre-emergence action against VERPE; type: in vivo, Veronica persica; conditions: Dosage 320 g/ha, pre-emergence; for pest or weed control at 320 g/ha: Veronica persica, 504 h
Summary of the method: as §1

MATIN [18] = test: Pre-emergence action against MATIN; type: in vivo, Matricaria inodora; conditions: Dosage 320 g/ha, pre-emergence; for pest or weed control at 320 g/ha: Tripleurospermum inodorum, 504 h
Summary of the method: as §1

PHBPU [19] = test: Post-emergence action against PHBPU; type: in vivo, Pharbitis purpurea; conditions: post-emergence, dosage 80 g/ha; for pest or weed control at 80 g/ha: Ipomoea purpurea, 504 h
Summary of the method: as §4

ABUTH [20] = test: Post-emergence action against ABUTH; type: in vivo, Abutilon theophrasti; conditions: post-emergence, dosage 80 g/ha, visual assessment about 3 weeks after treatment vs untreated controls; for pest or weed control at 80 g/ha: Abutilon theophrasti, 504 h, read-out: Post-emergence action against ABUTH (herbicidal action in percent)
Summary of the method: as §4

AVEFA = test: Pre-emergence action against AVEFA; type: in vivo, Avena fatua; conditions: dosage 320 g/ha, scored visually after 3 weeks vs untreated controls
Description: as §2

Compound | Pre-emergence action against ALOMY (herbicidal activity in percent) (ALOMY) [%] | SETVI (Table B8, pre-emergence herbicidal activity) (SETVI [1]) [%] | Pre-emergence action against PHBPU (PHBPU [2]) [%] | Post-emergence action against CYPES (herbicidal action in percent) (CYPES [3]) [%] | Pre-emergence action against ABUTH (herbicidal activity) (ABUTH [4]) [%] | Post-emergence action against MATIN (herbicidal action in percent) (MATIN [5]) [%] | Pre-emergence action against STEME (STEME [6]) [%] | Post-emergence action against ECHCG (herbicidal action in percent) (ECHCG [7]) [%] | Post-emergence action against VIOTR (VIOTR [8]) | Post-emergence action against SETVI (herbicidal action in percent) (SETVI [9]) [%] | Pre-emergence action against AMARE (herbicidal activity) (AMARE [10]) [%] | Pre-emergence action against CYPES (herbicidal activity) (CYPES [11]) [%] | Pre-emergence action against VIOTR (VIOTR [12]) [%] | Post-emergence action against AMARE (herbicidal action in percent) (AMARE [13]) [%] | Post-emergence action against VERPE (VERPE [14]) | Pre-emergence action against ECHCG (herbicidal activity) (ECHCG [15]) [%] | Post-emergence action against STEME (STEME [16]) | Pre-emergence action against MATIN (MATIN [18]) [%] | Post-emergence action against PHBPU (PHBPU [19]) | Post-emergence action against ABUTH (herbicidal action in percent) (ABUTH [20]) [%] | other results
CCCn1nnnc1NC(=O)c1ccc(C(F)(F)F)c(C(C)=O)c1C [3-14] | 90 | 100 | 90 | 90 | 100 | 100 | 100 | 100 | 100 | 100 | 100 | 80 | 100 | 100 | 80 | 100 | 100 | 100 | 90 | 90 | Pre-emergence action against VERPE (VERPE [17]): 100%
CCCn1nnnc1NC(=O)c1ccc(C(F)(F)F)c(C(=O)C2CC2)c1OC [3-50] | 100 | 100 | 80 | 80 | 100 | 100 | 100 | 100 | 100 | 100 | 100 | 90 | 100 | 100 | 100 |  | 100 | 100 | 100 | 100 | Pre-emergence action against AVEFA (herbicidal activity) (AVEFA): 100%; Pre-emergence action against VERPE (VERPE [17]): 100%
CCCn1nnnc1NC(=O)c1ccc(I)c(C(C)=O)c1Cl [3-192] | 90 | 100 | 100 | 80 | 100 | 100 | 100 | 100 | 100 | 100 | 100 | 100 | 100 | 80 |  | 100 | 100 | 100 | 80 | 100 | Pre-emergence action against AVEFA (herbicidal activity) (AVEFA): 90%
CC(=O)c1c(C)ccc(C(=O)Nc2nnnn2C)c1Cl [1-134] |  |  |  |  |  |  |  |  |  |  |  |  |  |  |  |  |  |  |  |  | pest or weed control at 80 g/ha (CYPES [3]): 90%; pest or weed control at 320 g/ha (ABUTH [4]): 90%; pest or weed control at 80 g/ha (MATIN [5]): 100%; pest or weed control at 320 g/ha (STEME [6]): 90%; pest or weed control at 80 g/ha (ECHCG [7]): 90%; pest or weed control at 80 g/ha (VIOTR [8]): 100%; pest or weed control at 80 g/ha (SETVI [9]): 80%; pest or weed control at 320 g/ha (AMARE [10]): 100%; pest or weed control at 80 g/ha (AMARE [13]): 90%; pest or weed control at 80 g/ha (VERPE [14]): 100%; pest or weed control at 320 g/ha (ECHCG [15]): 90%; pest or weed control at 80 g/ha (STEME [16]): 100%; pest or weed control at 320 g/ha (VERPE [17]): 90%; pest or weed control at 320 g/ha (MATIN [18]): 100%; pest or weed control at 80 g/ha (PHBPU [19]): 90%; pest or weed control at 80 g/ha (ABUTH [20]): 80%
CC(C)C(=O)c1c(Cl)ccc(C(=O)Nc2nnnn2C)c1Cl [1-280] |  |  |  |  |  |  |  |  |  |  |  |  |  |  |  |  |  |  |  |  | pest or weed control at 320 g/ha (ALOMY; Alopecurus myosuroides, 504 h, read-out: Pre-emergence action against ALOMY (herbicidal activity in percent)): 90%; pest or weed control at 320 g/ha (SETVI [1]; Setaria viridis, 504 h, read-out: SETVI (Table B8, pre-emergence herbicidal activity)): 90%; pest or weed control at 80 g/ha (CYPES [3]): 90%; pest or weed control at 320 g/ha (ABUTH [4]): 90%; pest or weed control at 80 g/ha (MATIN [5]): 90%; pest or weed control at 320 g/ha (STEME [6]): 90%; pest or weed control at 80 g/ha (ECHCG [7]): 90%; pest or weed control at 80 g/ha (VIOTR [8]): 90%; pest or weed control at 80 g/ha (SETVI [9]): 80%; pest or weed control at 320 g/ha (AMARE [10]): 100%; pest or weed control at 320 g/ha (CYPES [11]; Cyperus esculentus, 504 h, read-out: Pre-emergence action against CYPES (herbicidal activity)): 100%; pest or weed control at 320 g/ha (VIOTR [12]; Viola tricolor, 504 h): 100%; pest or weed control at 80 g/ha (AMARE [13]): 90%; pest or weed control at 80 g/ha (VERPE [14]): 90%; pest or weed control at 320 g/ha (ECHCG [15]): 100%; pest or weed control at 80 g/ha (STEME [16]): 100%; pest or weed control at 320 g/ha (VERPE [17]): 90%; pest or weed control at 320 g/ha (MATIN [18]): 100%; pest or weed control at 80 g/ha (PHBPU [19]): 80%; pest or weed control at 80 g/ha (ABUTH [20]): 80%
